Several values for one entry are separate records, joined by “and”; a condition that tells them apart may be missing. Equal values may be shown once.
Experiments:
Experiment in all cases: Broth microdilution antibiotic potentiation
Assay type in all cases: cell-based, Staphylococcus aureus
MRSA strain AH-1263 = conditions: AH-1263
Summary of the method: (§1)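 MRSA grown 6 h in CAMHB, subcultured to 5×10^5 CFU/mL, then adjuvant compound added from DMSO stock. Antibiotic serially 2-fold diluted across plate in adjuvant-containing culture, antibiotic-alone as control; plates incubated at 37° C.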

MRSA strain AH-2204 = conditions: AH-2204
Summary of the method: as §1

MRSA strain BAA-1770 = conditions: Ex. 3 compound at 60 μM
Procedure: Broth Microdilution Method for Antibiotic Potentiation with MRSA Strains. Bacteria were cultured for 6 hours in CAMHB and sub-cultured to 5×10^5 CFU/mL in CAMHB. Subcultures were aliquoted (4 mL) into culture tubes and then inoculated with compound from 10 mM or 100 mM stock in DMSO to the desired concentration. […] Bacteria treated with antibiotic alone served as the control. Samples from the secondary culture tubes were then aliquoted (200 μL) into the first row of wells of a 96-well microtiter plate. Rows 2-11 were filled (100 μL) with the remaining 4 mL of bacterial subculture containing the adjuvant. Row 12 was filled (100 μL) with uninoculated media. From row 1, 100 μL was transferred to row two and mixed 5-8 times before being transferred to row 3. This procedure was used to serial dilute the rest of the rows through 10. The microtiter plate was then covered in Press 'n Seal and incubated at 37° C.

[1] = Ex. 3 compound at 60 μM (18 and 19 at 30 μM)

O=C(Nc1ccc2[nH]c(-c3cccs3)nc2c1)c1ccco1 [Compound 1 (7729837)]
Ampicillin MIC (MRSA strain AH-1263; [1]): 8 µg/mL | Ampicillin MIC fold reduction (MRSA strain AH-1263; [1]): (2) | Cefotaxime MIC (MRSA strain AH-1263; [1]): 8 µg/mL | Cefotaxime MIC fold reduction (MRSA strain AH-1263; [1]): (4) | Oxacillin MIC (MRSA strain AH-1263; [1]): 1 µg/mL | Amoxicillin MIC (MRSA strain AH-1263; with Ex. 3 compound): 8 µg/mL | Cephalothin MIC (MRSA strain AH-1263; with Ex. 3 compound): 1 µg/mL | Cephalothin MIC fold reduction (MRSA strain AH-1263; with Ex. 3 compound): 32 | Penicillin G MIC (MRSA strain AH-1263; with Ex. 3 compound): 4 µg/mL | Penicillin G MIC fold reduction (MRSA strain AH-1263; with Ex. 3 compound): 2 | Piperacillin MIC (MRSA strain AH-1263; with Ex. 3 compound): 8 µg/mL | Piperacillin MIC fold reduction (MRSA strain AH-1263; with Ex. 3 compound): 2 | Ampicillin MIC (MRSA strain AH-2204; [1]): 2 µg/mL | Cefotaxime MIC (MRSA strain AH-2204; [1]): 8 µg/mL | Cefotaxime MIC fold reduction (MRSA strain AH-2204; [1]): (2) | Oxacillin MIC (MRSA strain AH-2204; [1]): 0.5 µg/mL and 0.6 µg/mL | Amoxicillin MIC (MRSA strain AH-2204; with Ex. 3 compound): 2 µg/mL | Cephalothin MIC (MRSA strain AH-2204; with Ex. 3 compound): 0.125 µg/mL | Cephalothin MIC fold reduction (MRSA strain AH-2204; with Ex. 3 compound): 32 | Penicillin G MIC (MRSA strain AH-2204; with Ex. 3 compound): 1 µg/mL | Piperacillin MIC (MRSA strain AH-2204; with Ex. 3 compound): 4 µg/mL | Oxacillin MIC fold reduction (MRSA strain BAA-1770): 32
